One series deals with S. aureus ATCC 13709. Description: microbe, parasite or virus in culture. The method, then:
(§1) An equal volume of a suspension of either E. coli ATCC 9637 (FIG. 6A) or S. aureus ATCC 13709 (FIG. 6B) in 2× Mueller-Hinton broth was added using an automated liquid dispensing system to a 384 well plate, and bacterial growth was measured by absorptimetry as described in Materials and Methods.
(§2) In this example, E. coli strain 9637 and S. aureus strain 13709 were procured from ATCC (Manassas, Va.). For IM permeability assays, E. coli ML-35 (ATCC 43827), a lactose permease-deficient strain with constitutive cytoplasmic β-galactosidase activity was used (26). Calcium chloride transformation of E. coli ML-35 was performed using the plasmid vector pBR322 (6), encoding tetracycline and ampicillin resistance genes (Promega, Madison, Wis.). The transformed strain, E. coli ML-35p, selected by ampicillin resistance, was utilized for the OM permeabilization assay. E. coli ML-35p was maintained on trypticase soy agar plates with 50 μg/ml of ampicillin.
(§3) Minimum inhibitory concentrations of the acylpolyamines were determined by broth microdilution method (1) as per NCCLS guidelines. Mid-log phase Mueller-Hinton broth (MHB; non-cation supplemented) cultures of organisms (40 μl; OD600nm adjusted to 0.5 AU, and diluted ten-fold) were added to equal volumes of two-fold serially diluted acylpolyamines in a 384-well microtiter plate with the help of a Biotek Precision 2000 automated microplate pipetting system. The MICs of rifampicin, polymyxin B (PMB), polymyxin B nonapeptide (PMBN), naphthylacetyl spermine trihydrochloride and methoctramine tetrahydrochloride (Sigma, St. Louis, Mo.) were included as reference compounds for comparison of activity. The microtiter plates were sealed and incubated overnight at 37° C. The plates were read at an absorbance of 600 nm. The lowest concentration of an agent inhibiting growth of the organisms was recorded as the MIC.

Series [1] has as its system E. coli ATCC 9637. As to the kind of experiment: microbe, parasite or virus in culture. The method, then: as §1, §2, §3
For series [2] the following is noted: 500 μM in 50 mM Tris buffer, pH 7.4, 5% DMSO, 25° C. On the procedure: Charged, amphipathic molecules are surface-active, and can be cytolytic to mammalian cells. […] Samples were at 500 μM concentration in 50 mM Tris buffer, pH 7.4 containing 5% DMSO. The instrument was calibrated with water at 25° C. (72 mN/m) and surface tension values were recorded over a range of bubble surface ages from 100 to 1500 ms at 25° C.

The next series has as its system CF-1 mice. The settings on record: preliminary. On the procedure: Detailed biophysical studies on the characterization of the binding site on albumin, stoichiometry, and dependence of binding affinity on mono-versus bis-acylation and acyl chain length will be published elsewhere.
Clinical signs of acute toxicity were monitored for 48 h following a single injection. In subacute studies, 100 μg of 4e was injected daily in the subcutaneous tissue of the flank region, the sites being alternated every day, for a duration of 15 days. The animals were monitored daily for signs of local irritation, weight loss, and food consumption.

The test system of series [3] is E. coli ATCC 9637. Description: Effect of acylpolyamines on MIC of rifampicin (sensitization). Format: cell-based, Escherichia coli. Further details: key to Sensitization to Rifampin: fold sensitization = MIC rifampicin alone / MIC with 10 μM compound. The settings on record: for Sensitization to Rifampin: E. coli strain 9637 preincubated with 10 μM of compound, MIC of rifampicin. On the procedure:
E. coli ATCC 9637 was seeded in MH broth in chequerboard format in a 384-well plate containing a constant concentration of compound and varying doses of rifampicin. Bacterial growth was monitored by turbidimetry at 600 nm. PMBN and melittin were used as positive controls. Wells containing no test-compound served as negative control. […] Fold sensitization was calculated as MICRifampicin alone/MICRifampicin+10μM Compound.
Perturbation of the outer membrane permeability barrier greatly sensitizes Gram negative organisms to otherwise impermeable hydrophobic solutes, rifampicin being a classic example To determine the effect of acylpolyamines on the MIC of hydrophobic antibiotic, rifampicin, E. coli strain 9637 was used. Overnight cultures of E. coli grown in MHB preincubated with 10 μM of acylpolyamines were added to serially diluted rifampicin in a 384-well microtiter plate. After incubation at 37° C. overnight, the MIC was determined. Controls included PMBN and melittin (positive) and rifampicin alone (negative). All experiments were run in triplicate.

The test system of the next series is human whole blood. As to the kind of experiment: Hemolysis in fresh whole human blood (released hemoglobin, 570 nm). Format: cell-based. The settings on record: fresh undiluted EDTA human blood, 37° C., 30 min. The method, then: Melittin was used as a positive control.
1:233-245 (2004). Erythrocyte damage was measured using two different techniques. […] Biophys. Acta 1123:269-274 (1992).

Series [4] concerns E. coli ML-35p (OM) / E. coli ML-35 (IM). Format: cell-based, Escherichia coli. The settings on record: nitrocefin and ONPG hydrolysis.
Protocol: OM permeabilizing activity was determined using E. coli ML-35p (parent i^− z^+ y^− ATCC 43827 transformed with pBR322 vector encoding periplasmic β-lactamase); the leakage of periplasmic β-lactamase activity was quantified using nitrocefin as a chromogenic substrate. IM permeabilizing activity was determined using E. coli ML-35 using o-nitrophenyl-β-D-galactopyranoside as the substrate to determine the β-galactosidase activity. In all experiments, PMB, PMBN, and melittin were used as reference compounds.
Nitrocefin (Calbiochem, San Diego, Calif.) was used for the determination of periplasmic β-lactamase activity since PADAC has been reported to be frequently insensitive to β-lactamase activity in clinically relevant strains of Staphylococcus. […] Harvested mid-log phase cultures of E. coli ML-35p (OD600nm adjusted to 0.5 AU) grown in trypticase soy broth were washed thrice with normal saline (0.9%). Nitrocefin was added to a final concentration of 50 μg/ml to the washed bacterial suspension, which was then added to the serially diluted compounds in a 384-well microtiter plate as described earlier. […] After various times of incubation at 37° C., β-lactamase activity was measured spectrophotometrically at 486 nm using an automated Spectramax M2 instrument (Molecular Devices, Sunnyvale, Calif.).
The IM permeability was measured using o-nitrophenyl-β-D-galactopyranoside (“ONPG”; Sigma, St. Louis, Mo.) as the substrate to determine the β-galactosidase activity. […] Washed cultures of E coli ML-35 mixed with 1.5 mM of ONPG in normal saline (0.9%) were added to serially diluted compounds in a 384-well microtiter plate. PMBN and melittin were used as the controls. The production of o-nitrophenol was quantified absorptimetrically at 420 nm after an incubation period of 1 hour at 37° C.
OM and IM permeability were determined respectively from dose-response curves of nitrocefin and ONPG hydrolysis rates as described in Lehrer et al., Concurrent assessment of inner and outer membrane permeabilization and bacteriolysis in E. coli by multiple-wavelength spectrophotometry, J. Immunol.
The next series deals with human serum albumin (Homo sapiens, UniProt P02768). As to the kind of experiment: biochemical. The settings on record: KD for HSA, isothermal titration calorimetry; single-site model. On the technique in general: Isothermal titration calorimetry measures the heat released or taken up as one component is titrated into another.
The subject of series [5] is LPS-induced nitric oxide production in murine macrophages. Description: NO inhibition, compound solubilized in DMSO or in HSA. Format: cell-based, mouse. The settings on record: DMSO vs HSA solubilization (FIG. 7C).
Setting [6] is: S. aureus ATCC 13709, Mueller-Hinton broth, overnight 37° C.
The mark [7] stands for this setting: E. coli ATCC 9637, Mueller-Hinton broth, overnight 37° C.

What is called Kd is the concentration at which binding is half-saturated.

“And” between values parts separate entries of the source, which are not always exact repeats. Equal values may be shown once.

human serum albumin, sequence (P02768 25-609): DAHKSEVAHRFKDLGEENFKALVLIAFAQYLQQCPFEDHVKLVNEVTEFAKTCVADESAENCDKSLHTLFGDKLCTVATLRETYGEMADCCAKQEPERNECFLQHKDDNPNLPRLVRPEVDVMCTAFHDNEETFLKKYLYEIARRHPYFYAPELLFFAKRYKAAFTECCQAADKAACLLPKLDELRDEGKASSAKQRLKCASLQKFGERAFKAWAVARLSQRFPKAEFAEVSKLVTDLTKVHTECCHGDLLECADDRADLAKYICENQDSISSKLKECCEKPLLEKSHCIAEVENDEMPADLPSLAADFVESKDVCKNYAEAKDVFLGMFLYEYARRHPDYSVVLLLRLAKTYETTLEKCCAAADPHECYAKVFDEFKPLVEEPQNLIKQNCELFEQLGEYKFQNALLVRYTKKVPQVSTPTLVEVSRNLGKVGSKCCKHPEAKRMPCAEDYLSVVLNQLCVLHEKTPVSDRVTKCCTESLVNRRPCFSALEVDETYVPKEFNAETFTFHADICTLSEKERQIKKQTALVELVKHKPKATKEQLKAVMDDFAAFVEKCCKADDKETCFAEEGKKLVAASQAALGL

Turning to `CCCCCCCCC(=O)NCCCNCCCNCCCCNCCCNCCCNC(=O)CCCCCCCC.O=C(O)C(F)(F)F.O=C(O)C(F)(F)F.O=C(O)C(F)(F)F.O=C(O)C(F)(F)F` [Compound 8a], the MIC is 15.6 μM and 16.4 μg/ml against S. aureus ATCC 13709 (setting [6]); 31.25 μM and 32.9 μg/ml with E. coli ATCC 9637 [1] (setting [7]). In addition, in series [2], the surface activity result is reported as “considerably surface active”. Moreover, in the series with CF-1 mice (100 μg/mouse, subcutaneously, for 15 days), the subacute toxicity entry was “not revealed any detectable toxicity”. Further, the acute toxicity result in the series on CF-1 mice (up to 1 mg/mouse, one dose subcutaneously) was “not revealed any detectable toxicity”. In addition, the “sensitization activity (MIC rifampicin alone / MIC rifampicin + 10 μM compound)” value in the series with E. coli ATCC 9637 [3] (10 μM compound, E. coli ATCC 9637) is listed as 4096 fold. In addition, the “Sensitization to Rifampin” value in the series on E. coli ATCC 9637 [3] was determined as 0.00381.

In the case of `CC[C@H](C)[C@H](NC(=O)CN)C(=O)NCC(=O)N[C@@H](C)C(=O)N[C@H](C(=O)N[C@@H](CC(C)C)C(=O)N[C@@H](CCCCN)C(=O)N[C@H](C(=O)N[C@@H](CC(C)C)C(=O)N[C@H](C(=O)N[C@H](C(=O)NCC(=O)N[C@@H](CC(C)C)C(=O)N1CCC[C@H]1C(=O)N[C@@H](C)C(=O)N[C@@H](CC(C)C)C(=O)N[C@H](C(=O)N[C@@H](CO)C(=O)N[C@@H](Cc1c[nH]c2ccccc12)C(=O)N[C@H](C(=O)N[C@@H](CCCCN)C(=O)N[C@@H](CCCNC(=N)N)C(=O)N[C@@H](CCCCN)C(=O)N[C@@H](CCCNC(=N)N)C(=O)N[C@@H](CCC(N)=O)C(=O)N[C@@H](CCC(N)=O)C(N)=O)[C@@H](C)CC)[C@@H](C)CC)[C@@H](C)O)[C@@H](C)O)C(C)C)C(C)C` [Melittin, melittin, reference compound], the “hemolysis in human whole blood” value in the series on human whole blood was “caused hemolysis at low micromolar concentrations”. Further, the MIC was 5.5 μM and 15.6 μg/ml in the series on S. aureus ATCC 13709 (setting [6]); 175 μM and 498.1 μg/ml against E. coli ATCC 9637 [1] (setting [7]). Moreover, the “membrane-permeabilizing activity (OM and IM)” value in series [4] is on record as “potently membrane-permeabilizing”.

Turning to `CCCCCCCCCCCCCCC(=O)NCCCNCCCNCCCCNCCCN` [Compound 4e], the MIC against S. aureus ATCC 13709 (Staphylococcus aureus, ATCC13709) was 15.6 µM and 14.6 µg/mL; in the series on E. coli ATCC 9637 [1] (Escherichia coli, ATCC9637) it was 31.2 µM and 29.3 µg/mL. For the same compound, the Kd on human serum albumin is 1.98 µM and ~2 µM. Also, the “potency of NO inhibition solubilized in DMSO or in HSA” value in series [5] was “identical potency”. The “Sensitization to Rifampin” value in the series on E. coli ATCC 9637 [3] worked out at 7.81.

The values above are taken from patent US20070197658A1, “Polyamines and their use as antibacterial and sensitizing agents” (priority 2006, published 2007).
